Test results: patent publication US20070129344A1, “Bicyclic 6-alkylidene-penem beta-lactamase inhibitors and beta-lactam antibiotic combination: a broad spectrum antibiotic” (priority 2005, published 2007)
Converted amounts (≈) assume the structure as drawn. Read-outs that look alike come from different tables or passages of the source.

Assays:
Type in all cases: cell-based
[1] = test system: K. pneumoniae GC 7636 TEM-1 KPC-2 SHV-12; test: MIC microbroth dilution; β-lactamase class A, A (Cb'ase), A (ESBL)
Method: (§1) The in vitro activities of the antibiotics were determined by the microbroth dilution method as recommended by the National Committee for Clinical Laboratory Standards (NCCLS). (NCCLS. 2000. Methods for Dilution Antimicrobial Susceptibility Tests for Bacteria That Grow Aerobically; Approved Standards: M7-A5, vol. 19. National Committee for Clinical Laboratory Standards, Villanova, Pa.). Mueller-Hinton II broth (MHBII)(BBL Cockeysville, Md.), was used for the testing procedure. […]. The plates were incubated for 18-22 hours at 35° C. in ambient air.

[2] = test system: E. coli GC 2805 (CcrA); test: MIC microbroth dilution; β-lactamase class B
Method: as §1

[3] = test system: K. oxytoca GC 7627 TEM-1 K1 KPC-2; test: MIC microbroth dilution; β-lactamase class A, A (Cb'ase)
Method: as §1

[4] = test system: E. coli GC 2847 (TEM-1); test: MIC microbroth dilution; β-lactamase class A; conditions: Escherichia coli, Cefepime alone, read-out: MIC
Method: as §1

[5] = test system: E. coli GC 2295 TEM-1 + AmpC; test: MIC microbroth dilution; β-lactamase class A, C
Method: as §1

[6] = test system: A. baumannii GC 7692 TEM-1, AmpC; test: MIC microbroth dilution; β-lactamase class A, C
Method: as §1

[7] = test system: A. baumannii GC 7687 AmpC; test: MIC microbroth dilution; β-lactamase class C; conditions: Cefepime alone
Method: as §1

[8] = test system: C. freundii GC 4164 Inducible AmpC; test: MIC microbroth dilution; β-lactamase class C; conditions: Cefepime alone
Method: as §1

[9] = test system: P. aeruginosa GC 1763 AmpC-inducible; test: MIC microbroth dilution; β-lactamase class C; conditions: Cefepime alone
Method: as §1

[10] = test system: E. cloacae GC 1712 AmpC-inducible; test: MIC microbroth dilution; β-lactamase class C; conditions: Cefepime alone
Method: as §1

[11] = test system: E. cloacae GC 4142 (AmpC); test: MIC microbroth dilution; β-lactamase class C; conditions: Enterobacter cloacae, Cefepime alone, read-out: MIC
Method: as §1

[12] = test system: K. pneumoniae GC 7823 Fox 5; test: MIC microbroth dilution; β-lactamase class C; conditions: Klebsiella pneumoniae, GC7823FOX5, K. pneumoniae GC 7823, Cefepime alone, read-out: MIC
Method: as §1

[13] = test system: E. coli GC 2894 (AmpC); test: MIC microbroth dilution; β-lactamase class C; conditions: Escherichia coli, Cefepime alone, read-out: MIC
Method: as §1

[14] = test system: K. pneumoniae GC 7824 Fox 5; test: MIC microbroth dilution; β-lactamase class C
Method: as §1

[15] = test system: P. aeruginosa GC 3153 Inducible AmpC; test: MIC microbroth dilution; β-lactamase class C; conditions: Cefepime alone
Method: as §1

[16] = test system: E. cloacae GC 1475 (P99); test: MIC microbroth dilution; β-lactamase class C; conditions: Cefepime alone
Method: as §1

[17] = test system: A. baumannii GC 7684 AmpC, AmpC; test: MIC microbroth dilution; β-lactamase class C; conditions: Cefepime alone
Method: as §1

[18] = test system: E. cloacae GC 6991 (AmpC); test: MIC microbroth dilution; β-lactamase class C; conditions: Enterobacter cloacae, Cefepime alone, read-out: MIC
Method: as §1

[19] = test system: S. marcescens PT 696 Inducible AmpC; test: MIC microbroth dilution; β-lactamase class C; conditions: Serratia marcescens, Cefepime alone, read-out: MIC
Method: as §1

[20] = test system: K. pneumoniae GC 7820 Act 1; test: MIC microbroth dilution; β-lactamase class C; conditions: Klebsiella pneumoniae, GC7820ACT1, K. pneumoniae GC 7820, Cefepime alone, read-out: MIC
Method: as §1

[21] = test system: S. marcescens GC 4132 (AmpC); test: MIC microbroth dilution; β-lactamase class C; conditions: Serratia marcescens, Cefepime alone, read-out: MIC
Method: as §1

[22] = test system: S. marcescens GC 4145 Inducible AmpC; test: MIC microbroth dilution; β-lactamase class C; conditions: Serratia marcescens, Cefepime alone, read-out: MIC
Method: as §1

[23] = test system: P. aeruginosa ATCC 27853 AmpC-inducable; test: MIC microbroth dilution; β-lactamase class C
Method: as §1

[24] = test system: K. pneumoniae GC 7821 DHA 1; test: MIC microbroth dilution; β-lactamase class C; conditions: Klebsiella pneumoniae, GC7821DHA1, K. pneumoniae GC 7821, Cefepime alone, read-out: MIC
Method: as §1

[25] = test system: E. aerogenes 1697-MP GC 7845 AmpC; test: MIC microbroth dilution; β-lactamase class C; conditions: E. aerogenes GC 7845, Cefepime alone
Method: as §1

[26] = Pseudomonas aeruginosa, control of Compound 1 test, read-out: MIC
[27] = Enterobacter cloacae, control of Compound 1 test, read-out: MIC
[28] = Cefepime alone, control of Compound 2 test

Compound `CO/N=C(\C(=O)N[C@@H]1C(=O)N2C(C(=O)[O-])=C(C[N+]3(C)CCCC3)CS[C@H]12)c1csc(N)n1` [Cefepime, reference compound] has an MIC ([1]; K. pneumoniae GC 7636, Cefepime alone, control of Compound 2 test) of over 16 µg/mL, an MIC ([1]; Klebsiella pneumoniae) of over 16 µg/mL and an MIC ([2]; E. coli GC 2805, Cefepime alone, control of Compound 2 test) of over 16 µg/mL. It also gave an MIC ([2]; Escherichia coli) of over 16 µg/mL, an MIC ([3]; K. oxytoca GC 7627, Cefepime alone, control of Compound 2 test) of over 16 µg/mL and an MIC ([3]; Klebsiella oxytoca) of over 16 µg/mL. The MIC ([4]; control of Compound 1 test) was 0.12 µg/mL (≈ 0.25 µM), the MIC ([4]; control of Compound 2 test) was 0.06 µg/mL (≈ 0.125 µM) and the MIC ([5]; E. coli GC 2295, Cefepime alone, control of Compound 2 test) was 0.50 µg/mL (≈ 1.04 µM). For the same compound, the MIC ([5]; Escherichia coli) was 0.5 µg/mL (≈ 1.04 µM), the MIC ([6]; A. baumannii GC 7692, Cefepime alone, control of Compound 2 test) was over 16 µg/mL and the MIC ([6]; Acinetobacter baumannii) was over 16 µg/mL. The MIC ([7]; Acinetobacter baumannii, GC7687AMPC, control of Compound 1 test, read-out: MIC) was 16 µg/mL (≈ 33.3 µM), the MIC ([7]; control of Compound 2 test) was 16 µg/mL (≈ 33.3 µM) and the MIC ([8]; control of Compound 2 test) was 1 µg/mL (≈ 2.08 µM). It also gave an MIC ([8]; Citrobacter freundii, control of Compound 1 test, read-out: MIC) of 1 µg/mL (≈ 2.08 µM), an MIC ([9]; control of Compound 2 test) of 2 µg/mL (≈ 4.16 µM) and an MIC [9, 26] of 2 µg/mL (≈ 4.16 µM). It also gave an MIC ([10]; control of Compound 2 test) of 0.12 µg/mL (≈ 0.25 µM), an MIC [10, 27] of 0.12 µg/mL (≈ 0.25 µM) and an MIC ([11]; control of Compound 1 test) of over 16 µg/mL. It also gave an MIC ([11]; control of Compound 2 test) of 8 µg/mL (≈ 16.6 µM), an MIC ([12]; control of Compound 1 test) of 0.5 µg/mL (≈ 1.04 µM) and an MIC ([12]; control of Compound 2 test) of 1 µg/mL (≈ 2.08 µM). The MIC ([13]; control of Compound 1 test) was 2 µg/mL (≈ 4.16 µM), the MIC ([13]; control of Compound 2 test) was 4 µg/mL (≈ 8.32 µM) and the MIC [14, 28] was 2 µg/mL (≈ 4.16 µM). For the same compound, the MIC ([14]; Klebsiella pneumoniae, GC7824FOX5, Cefepime alone, control of Compound 1 test, read-out: MIC) was 2 µg/mL (≈ 4.16 µM), the MIC ([15]; control of Compound 2 test) was 16 µg/mL (≈ 33.3 µM) and the MIC [15, 26] was 16 µg/mL (≈ 33.3 µM). For the same compound, the MIC ([16]; control of Compound 2 test) was 2 µg/mL (≈ 4.16 µM), the MIC [16, 27] was 2 µg/mL (≈ 4.16 µM) and the MIC ([17]; Acinetobacter baumannii, control of Compound 1 test, read-out: MIC) was 16 µg/mL (≈ 33.3 µM). The MIC ([17]; control of Compound 2 test) was 16 µg/mL (≈ 33.3 µM), the MIC ([18]; control of Compound 1 test) was 0.5 µg/mL (≈ 1.04 µM) and the MIC ([18]; control of Compound 2 test) was 1 µg/mL (≈ 2.08 µM). The MIC ([19]; control of Compound 1 test) was 0.25 µg/mL (≈ 0.52 µM), the MIC ([19]; control of Compound 2 test) was 0.5 µg/mL (≈ 1.04 µM) and the MIC ([20]; control of Compound 1 test) was 0.25 µg/mL (≈ 0.52 µM). It also gave an MIC ([20]; control of Compound 2 test) of 0.5 µg/mL (≈ 1.04 µM), an MIC ([21]; control of Compound 1 test) of 0.5 µg/mL (≈ 1.04 µM) and an MIC ([21]; control of Compound 2 test) of 2 µg/mL (≈ 4.16 µM). It also gave an MIC ([22]; control of Compound 1 test) of 1 µg/mL (≈ 2.08 µM), an MIC ([22]; control of Compound 2 test) of 0.5 µg/mL (≈ 1.04 µM) and an MIC [23, 28] of 2 µg/mL (≈ 4.16 µM). It also gave an MIC ([23]; Pseudomonas aeruginosa, ATCC27853, Cefepime alone, control of Compound 1 test, read-out: MIC) of 2 µg/mL (≈ 4.16 µM), an MIC ([24]; control of Compound 1 test) of 0.25 µg/mL (≈ 0.52 µM) and an MIC ([24]; control of Compound 2 test) of 0.06 µg/mL (≈ 0.125 µM). For the same compound, the MIC ([25]; control of Compound 2 test) was 0.25 µg/mL (≈ 0.52 µM) and the MIC ([25]; Klebsiella aerogenes, control of Compound 1 test, read-out: MIC) was 0.25 µg/mL (≈ 0.52 µM).
